Key:
CRTH2 receptor = CRTH2 receptor (Homo sapiens (Human), UniProt Q9Y5Y4); assay: [3H]PGD2 radioligand binding assay on CHO/CRTH2 cell membranes; settings: for Ki: [3H]PGD2, CHO/CRTH2 membranes
Experimental: Chinese Hamster Ovary cells were transfected with CRTH2 or DP receptors (CHO/CRTH2 and CHO/DP) and were maintained in culture in a humidified atmosphere at 37° C. (5% CO2) in Minimum Essential Medium (MEM) supplemented with 10% foetal bovine serum, 2 mM glutamine, and 1 mg ml^−1 active G418. The cells were passaged every 2-3 days. For radioligand binding assay, cells were prepared in triple-layer flasks or in 175 cm^2 square flasks (for membrane preparation).
Membranes were prepared either from CHO/CRTH2 and CHO/DP cells, or from platelets (as a source of TP receptors). CHO cells grown to confluency were washed with PBS and detached using a Versene solution (15 ml per flask). When the cells were grown in 175 cm^2 square flask, they were collected by scrapping in PBS. The cell suspensions were centrifuged (1,700 rpm, 10 min, 4° C.) and resuspended in 15 ml of buffer (1×HBSS, supplemented with 10 mM HEPES, pH 7.3). Cell suspensions were then homogenised using an Ultra Turrax at setting 4-6 for 20 s. The homogenate was centrifuged at 1,700 rpm for 10 min and the supernatant was collected and centrifuged at 20,000 rpm for 1 h at 4° C. The resulting pellet was resuspended in buffer and stored at −80° C. in aliquots of […] The protein concentration was determined by the method of Bradford (1976), using bovine serum albumin as standard. The platelets were washed by centrifugation at 600×g for 10 min and resuspended in ice-cold assay buffer (10 mM Tris-HCl, pH 7.4, 5 mM Glucose, 120 mM NaCl, 10 μM indomethacin) and directly centrifuged at 20,000 rpm for 30 min at 4° C. The resulting pellet was treated as described above.
[^3H]PGD2 (160 Ci/mmol) binding experiments were performed on membranes prepared as described above. Assays were performed in a final volume of 100 μl of buffer (1×HBSS/HEPES 10 mM, pH 7.3). Cell membranes (15 μg) were preincubated at room temperature with varying concentration of competing ligand for 15 min. [^3H]PGD2 was then added and the incubation continued for a further one hour at room temperature. The reaction was terminated by the addition of 200 μl ice-cold assay buffer to each well, followed by rapid filtration through Whatman GF/B glass fibre filters using a Unifilter Cell harvester (PerkinElmer Life Sciences) and six washes of 300 μl of ice-cold buffer. The Unifilter plates were dried at room temperature for at least 1 h and the radioactivity retained on the filters was determined on a Beta Trilux counter (PerkinElmer Life Sciences), following addition of 40 μl of Optiphase Hi-Safe 3 (Wallac) liquid scintillation. Non specific binding was defined in the presence of 10 μM unlabelled PGD2. Assays were performed in duplicate.

[1] = tested on: eosinophils in human whole blood; assay: Human whole blood eosinophil shape change assay (PGD2-induced); format: cell-based; settings: for IC50: Eosinophil, 10 nM PGD2, human whole blood, read-out: IC50 for effect on 10 nM PGD2-induced eosinophil shape change in human whole blood
Experimental: Compounds 1-3 were assayed for their effect on PGD2 induced eosinophil shape change and were compared with Comparator Compounds A, B and D.
Compounds (1 μl, 200× final concentration) were added directly to 200 μl whole blood, mixed well and incubated for 15 min, 37° C., 5% CO2. After this time, cell shape was fixed by addition of 300 μl Cytofix™ buffer (BD Biosciences), 15 min on ice. 10 ml RBC lysis buffer was added to the fixed cells, incubated 5 min, at room temperature and centrifuged, 300×g for 5 min. Supernatant (containing lysed red cells) was removed and the lysis step was repeated. Leukocytes were resuspended in 250 μl RPMI/10% FCS and shape change analysed by FACS. Eosinophils were gated out based on their autofluorescence and 2000 eosinophil events were counted per sample. Data were analysed in triplicate.

[2] = In vivo pharmacokinetic profile in the dog; settings: plasma
Microsomal stability = format: in vitro ADME, human; settings: for Mean Parent remaining (%): 1 x 10^-6 M test compound, human liver microsomes 0.3 mg/ml, mean of two experiments; for unmetabolised in human liver microsomes: text states
Experimental: The percentage of the test compound remaining in the sample after 1 hour was measured in order to determine the rate of metabolism of test compound. The results are shown in Table 3, which gives the results for two experiments and the mean value obtained.

Chain of CRTH2 receptor (Q9Y5Y4 whole entry): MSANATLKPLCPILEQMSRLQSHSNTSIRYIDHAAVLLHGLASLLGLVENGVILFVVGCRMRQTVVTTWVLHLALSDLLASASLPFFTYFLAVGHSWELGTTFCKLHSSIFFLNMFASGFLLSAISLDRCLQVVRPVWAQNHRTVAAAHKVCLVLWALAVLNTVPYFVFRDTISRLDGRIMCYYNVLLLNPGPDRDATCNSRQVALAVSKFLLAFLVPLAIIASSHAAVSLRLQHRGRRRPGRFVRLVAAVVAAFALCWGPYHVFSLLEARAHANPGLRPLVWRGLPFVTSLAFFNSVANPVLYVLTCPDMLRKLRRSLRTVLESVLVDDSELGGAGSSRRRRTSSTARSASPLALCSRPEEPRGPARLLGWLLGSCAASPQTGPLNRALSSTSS

| SMILES | Ki (CRTH2 receptor) | IC50 [1] | half-life ([2]; oral) | Mean Parent remaining (%) (Microsomal stability) | unmetabolised in human liver microsomes (Microsomal stability) | half-life [2] | CRTH2 antagonist potency under physiological conditions (in words) ([1]; eosinophil shape change test, whole blood) | binding to the CRTH2 receptor (in words) (CRTH2 receptor) | stability in human microsomes (in words) (Microsomal stability; human microsomes) |
| --- | --- | --- | --- | --- | --- | --- | --- | --- | --- |
| Cc1c(Cc2cccnc2S(=O)(=O)c2ccccc2)c2cc(F)ccc2n1CC(=O)O [Compound 1, (3-{[2-(Benzenesulfonyl)pyridin-3-yl]methyl}-5-fluoro-2-methylindol-1-yl)-acetic acid] | 2 nM | 9 nM | 3 h | 96% | 96% | – | – | – | – |
| Cc1c(Cc2cccnc2S(=O)(=O)c2ccc(F)cc2)c2cc(F)ccc2n1CC(=O)O [Compound 2, [5-Fluoro-3-({2-[(4-fluorobenzene)sulfonyl]pyridin-3-yl}methyl)-2-methylindol-1-yl]-acetic acid] | – | 2.5 nM | – | 98% | 98% | 5 h | – | – | – |
| Cc1c(Cc2cccnc2S(=O)(=O)c2ccc(Cl)cc2)c2cc(F)ccc2n1CC(=O)O [Compound 3, [3-({2-[(4-Chlorobenzene)sulfonyl]pyridin-3-yl}methyl)-5-fluoro-2-methylindol-1-yl]-acetic acid] | – | 10 nM | – | – | – | – | – | – | – |
| Cc1c(Cc2ccc(S(C)(=O)=O)cc2)c2cc(F)ccc2n1CC(=O)O [Compound A, [3-(4-Methylsulfonyl-benzyl)-5-fluoro-2-methyl-indol-1-yl]-acetic acid] | 7 nM | 8 nM | 1 h | – | – | – | – | – | – |
| Cc1c(Cc2ccncc2S(=O)(=O)c2ccccc2)c2cc(F)ccc2n1CC(=O)O [Compound B, [3-(3-Benzenesulfonyl-pyridin-4ylmethyl)-5-fluoro-2-methyl-indol-1-yl]-acetic acid] | 1 nM | 34 nM | – | 69% | 69% | – | not a particularly potent CRTH2 antagonist | – | – |
| Cc1c(Cc2ncccc2S(=O)(=O)c2ccccc2)c2cc(F)ccc2n1CC(=O)O [Compound C, [3-(3-Benzenesulfonyl-pyridin-2-ylmethyl)-5-fluoro-2-methyl-indol-1-yl]-acetic acid] | 979 nM | – | – | 90% | 90% | – | – | bind only very weakly | – |
| Cc1c(Cc2cccn2S(=O)(=O)c2ccccc2)c2cc(F)ccc2n1CC(=O)O [Compound D, [3-(1-Benzenesulfonyl-1H-pyrrol-2-ylmethyl)-5-fluoro-2-methyl-indol-1-yl]-acetic acid] | – | 8 nM | – | 24% | 24% | – | – | – | low stability |
| Cc1c(Cc2cccnc2)c2cc(F)ccc2n1CC(=O)O [Compound E] | 258 nM | – | – | – | – | – | – | bind only very weakly | – |

From US8536158B2, “Compounds having CRTH2 antagonist activity” (Atopix Therapeutics Limited, priority 2008, dated 2013)
